The source of these data is US8163771B2, “11 β-HSD1 modulators” (Exelixis, Inc., priority 2008, dated 2012).

Structures are written as SMILES. Some results are limits rather than exact numbers.

For this test, the target named is T1, recombinant human 11 β-HSD1 (Homo sapiens, UniProt P28845).
T1 construct: made in house; host or cells: E. coli
T1 sequence (P28845 whole entry): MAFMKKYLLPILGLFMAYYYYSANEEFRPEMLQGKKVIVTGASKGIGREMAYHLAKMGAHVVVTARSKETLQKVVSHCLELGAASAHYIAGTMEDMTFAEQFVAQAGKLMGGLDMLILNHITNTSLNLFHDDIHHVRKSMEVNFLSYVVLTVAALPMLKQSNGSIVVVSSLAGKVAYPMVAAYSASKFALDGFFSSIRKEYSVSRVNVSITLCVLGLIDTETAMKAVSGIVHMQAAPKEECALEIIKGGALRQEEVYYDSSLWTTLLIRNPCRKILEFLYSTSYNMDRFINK
Kind of test: 11 β-HSD1 SPA Assay (Scintillation Proximity Assay). Type of test: biochemical. The method, then:
(§1) Inhibition of 11 βHSD1 by test compounds was assessed in vitro by a Scintillation Proximity Assay (SPA). The assay was carried out in a 384-well assay plate in a total well volume of 26 μl and contained a mixture of tritiated cortisone substrate (40 nM), NADPH cofactor (1 mM), inhibitor in serial dilutions ([…] to 10 μM), and purified E. coli-expressed recombinant human 11 βHSD1 (30-100 nM) in assay buffer (50 mM HEPES, 100 mM KCl, 5 mM NaCl, and 2 mM MgCl2, pH7.4). Following mixing, the plate was incubated for 2 hours at room temperature. Reactions were stopped by addition of 30 μl of protein A YSi SPA beads (10 mg/ml) that had been pre-incubated with glycyrrhetinic acid (1 mM) and a monoclonal cortisol antibody (3 μg/ml). The plate was then incubated overnight at room temperature prior to reading on a Microbeta counter. Percent inhibition of each compound was calculated based on the background and the maximal signals. Wells that contained substrate without compound or enzyme were used as the background signal, while the wells that contained substrate and enzyme without any compound were used as the maximal signal. The calculation of the IC50 values for the inhibitors was performed by Activity Base.
as §1, with “β-HSD1” for “βHSD1”
(In general: In a scintillation proximity assay essentially only radioactivity close to the scintillant gives light.)
As a reminder, the IC50 is the midpoint of a concentration-inhibition curve. As to `CC(=O)Nc1ccc(N2[C@@H]3CC[C@H]2C[C@@H](NC(=O)C2(c4ccc(Cl)cc4)CC2)C3)nc1` [Example 58, N-{8-[5-(acetylamino)pyridin-2-yl]-8-azabicyclo[3.2.1]oct-3-endo-yl}-1-(4-chlorophenyl)cyclopropanecarboxamide], the IC50 was less than 200 nM.
With `O=C(Nc1ccc(N2[C@@H]3CC[C@H]2C[C@@H](NC(=O)C2(c4ccc(Cl)cc4)CC2)C3)nc1)C1CC1` [Example 59, 1-(4-chlorophenyl)-N-(8-{5-[(cyclopropylcarbonyl)amino]pyridin-2-yl}-8-azabicyclo[3.2.1]oct-3-endo-yl)cyclopropanecarboxamide], the IC50 is less than 200 nM.
Then `CS(=O)(=O)Nc1ccc(N2[C@@H]3CC[C@H]2C[C@@H](NC(=O)C2(c4ccc(Cl)cc4)CC2)C3)nc1` [Example 60, 1-(4-chlorophenyl)-N-(8-{5-[(methylsulfonyl)amino]pyridin-2-yl}-8-azabicyclo[3.2.1]oct-3-endo-yl)cyclopropanecarboxamide], with less than 200 nM.
`Nc1ccc(N2[C@@H]3CC[C@H]2C[C@@H](NC(=O)C2(c4ccc(Cl)cc4)CC2)C3)nc1` [Example 61, N-[8-(5-aminopyridin-2-yl)-8-azabicyclo[3.2.1]oct-3-endo-yl]-1-(4-chlorophenyl)cyclopropanecarboxamide]: the IC50 was less than 200 nM.
With `O=C(NC1CC1)c1ccc(N2[C@@H]3CC[C@H]2C[C@@H](NC(=O)C2(c4ccc(Cl)cc4)CC2)C3)cc1` [Example 62, 4-[3-endo-({[1-(4-chlorophenyl)cyclopropyl]carbonyl}amino)-8-azabicyclo[3.2.1]oct-8-yl]-N-cyclopropylbenzamide], the IC50 is less than 200 nM.
Take `O=C(NC1CC1)c1ccc(N2[C@@H]3CC[C@H]2C[C@@H](NC(=O)C2(c4ccc(Cl)cc4)CC2)C3)cc1Cl` [Example 63, 2-chloro-4-[3-endo-({[1-(4-chlorophenyl)cyclopropyl]carbonyl}amino)-8-azabicyclo[3.2.1]oct-8-yl]-N-cyclopropylbenzamide]: the IC50 is less than 200 nM.
As for `O=C(NC1CC1)c1ccc(N2[C@@H]3CC[C@H]2C[C@@H](NC(=O)C2(Oc4ccc(Cl)cc4)CC2)C3)nc1` [Example 64, 6-{3-endo-[({1-[(4-chlorophenyl)oxy]cyclopropyl}carbonyl)amino]-8-azabicyclo[3.2.1]oct-8-yl}-N-cyclopropylpyridine-3-carboxamide], the IC50 was less than 200 nM.
Turning to `CC(C)(Oc1ccc(Cl)cc1Cl)C(=O)N[C@H]1C[C@H]2CC[C@@H](C1)N2c1ccc(C(=O)NCC(F)(F)F)cn1` [Example 65, 6-[3-endo-({2-[(2,4-dichlorophenyl)oxy]-2-methylpropanoyl}amino)-8-azabicyclo[3.2.1]oct-8-yl]-N-(2,2,2-trifluoroethyl)pyridine-3-carboxamide], the IC50 was less than 200 nM.
Take `CC(C)(Oc1ccc(Cl)cc1)C(=O)N[C@H]1C[C@H]2CC[C@@H](C1)N2c1cnccn1` [Example 66, 2-[(4-chlorophenyl)oxy]-2-methyl-N-(8-pyrazin-2-yl-8-azabicyclo[3.2.1]oct-3-endo-yl)propanamide]: the IC50 was less than 200 nM.
Regarding `COCCNC(=O)c1ccc(N2[C@@H]3CC[C@H]2C[C@@H](NC(=O)C(C)Oc2ccc(Cl)cc2)C3)nc1` (stereo partly drawn) [Example 67, 6-[3-endo-({2-[(4-chlorophenyl)oxy]propanoyl}amino)-8-azabicyclo[3.2.1]oct-8-yl]-N-[2-(methyloxy)ethyl]pyridine-3-carboxamide], the IC50 is less than 10000 nM.
With `COCCNC(=O)c1ccc(N2[C@@H]3CC[C@H]2C[C@@H](NC(=O)C(C)Oc2ccc(Cl)cc2Cl)C3)nc1` (stereo partly drawn) [Example 68, 6-[3-endo-({2-[(2,4-dichlorophenyl)oxy]propanoyl}amino)-8-azabicyclo[3.2.1]oct-8-yl]-N-[2-(methyloxy)ethyl]pyridine-3-carboxamide] the figure was less than 2000 nM.
